# Experimental data as given in article PMC8567202, “Phosphoinositide-binding activity of Smad2 is essential for its function in TGF-β signaling” (The Journal of Biological Chemistry, 2021).
# Key:
# Format in all cases: cell-based
# HeLa cells [1] = assay: TIRF imaging of PM localization of EGFP-Smad2; details: HeLa cells, 10 ng/ml TGF-β, SB-431542 10 μM for 36 h where used
# Method: (§1) Figure 4 Quantitative imaging analyses of spatiotemporal dynamics of Smad2.A, TIRF images of mouse EGFP-Smad2-WT transfected into HeLa cells whose endogenous Smad2 is suppressed by siRNA. Images were taken before and 5 min after TGF-β stimulation (10 ng/ml) with and without PI(4,5)P2 depletion. A pseudo-coloring scheme was used with orange and blue representing the highest and the lowest intensity, respectively. B, kinetics of TGF-β stimulated (10 ng/ml) PM localization of EGFP-Smad2-WT (blue), -K420A (green), and -W422A (orange) transfected into HeLa cells the endogenous Smad2 of which was suppressed by siRNA. For EGFP-Smad2-WT, the effect of PI(4,5)P2 depletion (black) and TβRI inhibition by SB-431542 (10 μM for 36 h) (red) were measured. Data points indicate average ±S.D. (n = 10 cells). C, spatially resolved PM PI(4,5)P2 concentration ([PI(4,5)P2]) profiles calculated from two-channel cross-sectional images of HeLa cells (before and 5 min after 10 ng/ml TGF-β stimulation and after PI(4,5)P2 depletion). Each cell is a representative of more than ten cells analyzed. Spatially averaged [PI(4,5)P2] values for each cell type are shown. […] E, time courses of the half-life of colocalization for SNAP-TMR-labeled TβRI and EGFP-Smad2 determined by dual color single-molecule tracking analysis. […] For EGFP-Smad2-WT, the effect of PI(4,5)P2 depletion (purple) was measured. […]
# TβRI = assay: Dual color single-molecule tracking, TβRI and EGFP-PLCδ-PH; details: HeLa cells
# HeLa cells [2] = assay: Ratiometric PI(4,5)P2 imaging; details: 10 ng/ml TGF-β
# Method: as §1
compound,measurement,setting,value
"NC(=O)c1ccc(-c2nc(-c3ccc4c(c3)OCO4)c(-c3ccccn3)[nH]2)cc1 [SB-431542, reference compound]",PM residence / dissociation of Smad2,HeLa cells [1],greatly elongated the PM residence of Smad2
EGFP-phospholipase Cδ-pleckstrin homology domain [EGFP-PLCδ-PH],time of maximal dwell time of TβRI-PLCδ-PH complex after TGF-β stimulation,"TβRI; 10 ng/ml TGF-β, n = 10 cells",5 min
same,"colocalization of TMR-SNAP-TβRI and EGFP-PLCδ-PH after PI(4,5)P2 depletion",TβRI; before and after TGF-β stimulation,eliminated colocalization
TGF-β: TGF-β1 was purchased from Millipore sigma (Cat no. T7039-2UG),"effect on PM PI(4,5)P2 distribution and spatially averaged concentration",HeLa cells [2],"neither spatiotemporal distribution of PI(4,5)P2 nor the spatially averaged PI(4,5)P2 concentration was altered"
